{
  "source": "patent US9949975B2",
  "about": "“Inhibitors of beta-secretase” (Vitae Pharmaceuticals, Inc., priority 2012, dated 2018)",
  "data": [
    {"molecular_target": "hERG channel (Homo sapiens (Human), UniProt Q12809)", "sequence (Q12809 whole entry, the tested form may be a part)": "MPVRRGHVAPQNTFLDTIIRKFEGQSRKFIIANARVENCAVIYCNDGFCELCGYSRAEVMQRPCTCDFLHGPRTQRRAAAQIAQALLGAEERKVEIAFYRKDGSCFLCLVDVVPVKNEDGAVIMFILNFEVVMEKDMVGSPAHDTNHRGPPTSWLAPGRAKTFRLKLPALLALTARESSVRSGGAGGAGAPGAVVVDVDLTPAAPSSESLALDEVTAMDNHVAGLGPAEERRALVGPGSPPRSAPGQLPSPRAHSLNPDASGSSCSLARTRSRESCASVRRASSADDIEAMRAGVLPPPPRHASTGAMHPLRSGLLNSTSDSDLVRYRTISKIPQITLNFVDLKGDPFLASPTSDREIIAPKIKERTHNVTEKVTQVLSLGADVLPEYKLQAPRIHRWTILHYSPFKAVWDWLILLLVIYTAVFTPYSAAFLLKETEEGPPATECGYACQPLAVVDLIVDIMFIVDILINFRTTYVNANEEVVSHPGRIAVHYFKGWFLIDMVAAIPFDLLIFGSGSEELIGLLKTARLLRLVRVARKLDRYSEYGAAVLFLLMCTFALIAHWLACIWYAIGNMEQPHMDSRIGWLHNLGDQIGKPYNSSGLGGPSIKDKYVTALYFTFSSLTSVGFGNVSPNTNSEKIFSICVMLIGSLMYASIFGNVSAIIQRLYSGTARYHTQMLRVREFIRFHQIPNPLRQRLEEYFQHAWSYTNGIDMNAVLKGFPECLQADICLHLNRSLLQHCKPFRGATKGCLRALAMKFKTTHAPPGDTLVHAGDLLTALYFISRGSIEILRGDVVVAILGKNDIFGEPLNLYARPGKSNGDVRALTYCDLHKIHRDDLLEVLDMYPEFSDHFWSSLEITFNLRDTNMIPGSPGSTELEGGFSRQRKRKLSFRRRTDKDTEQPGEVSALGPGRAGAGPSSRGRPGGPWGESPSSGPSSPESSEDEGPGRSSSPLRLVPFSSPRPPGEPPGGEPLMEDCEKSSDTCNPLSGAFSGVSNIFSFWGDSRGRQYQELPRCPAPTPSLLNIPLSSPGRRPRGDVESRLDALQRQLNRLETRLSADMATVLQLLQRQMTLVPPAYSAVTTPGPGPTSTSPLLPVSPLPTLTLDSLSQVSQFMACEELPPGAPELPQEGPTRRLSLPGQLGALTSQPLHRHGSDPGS", "test": "hERG-Channel Assay (Assay 3), whole-cell patch clamp", "format": "cell-based", "conditions": "HEK293 cells transfected with hERG, 35° C.", "description": "HEK (human embryonic kidney) 293 cells were stably transfected with hERG cDNA.\nCells were superfused with a bath solution containing (mM): NaCl (137), KCl (4.0), MgCl2 (1.0), CaCl2 (1.8), Glucose (10), HEPES (10), pH 7.4 with NaOH. Patch pipettes were made from borosilicate glass tubing using a horizontal puller and filled with pipette solution containing (mM): K-aspartate (130), MgCl2 (5.0), EGTA (5.0), K2ATP (4.0), HEPES (10.0), pH 7.2 with KOH. Resistance of the microelectrodes was in the range between 2 and 5 MΩ.\nMembrane currents were recorded using an EPC-10 patch clamp amplifier and PatchMaster software. hERG-mediated membrane currents were recorded at 35° C., using the whole-cell configuration of the patch-clamp technique. Transfected HEK293 cells were clamped at a holding potential of −60 mV and hERG-mediated inactivating tail currents were elicited using a pulse pattern with fixed amplitudes (activation/inactivation: 40 mV for 2000 ms; recovery: −120 mV for 2 ms; ramp to 40 mV in 2 ms; inactivating tail current: 40 mV for 50 ms) repeated at 15 s intervals. During each inter-pulse interval 4 pulses scaled down by a factor of 0.2 were recorded for a P/n leak subtraction procedure. Rs compensation was employed up to a level that safely allowed recording devoid of ringing.\nThe different concentrations of the test compound were applied sequentially on each of the different cells investigated. A steady state level of baseline current was measured for at least 6 sweeps prior to the application of the first test compound concentration.\nThe test compound was dissolved in DMSO to yield a master stock solution which was diluted further in DMSO to stock solutions needed for the lower concentrations. Final dilutions in extracellular buffer were prepared freshly from these stocks by a 1:1000 dilution step each before starting the experiments.\nPeak current amplitudes were measured 3 ms after the ramp to +40 mV. For baseline and each concentration the peak currents of the three last sweeps before application of the next concentration were averaged. Residual currents (I/I0) were calculated for each cell as the fraction of actual average peak current and average baseline peak current. Results are presented as percent (%) inhibition (1−I/I0)*100% at 10 μM.", "units": {"hERG % inhibition @ 10 μM (assay 3)": "%"}, "values": [
      {"molecule": "CO[C@H]1[C@H](C)C[C@@]2(Cc3ccc(C#N)cc3[C@]23N=C(N)N(C[C@@H]2CCO2)C3=O)C[C@@H]1C", "note": "(stereo in doubt) [Example 18]", "hERG % inhibition @ 10 μM (assay 3)": 17},
      {"molecule": "COC1CCC2(CC1)Cc1ccc(C#N)cc1C21N=C(N)N(CC2CCCO2)C1=O", "note": "(stereo not drawn) [Comparison example drawing 13, reference compound]", "hERG % inhibition @ 10 μM (assay 3)": 16},
      {"molecule": "CC[C@@H]1C[C@]2(CC[C@H]1OC)Cc1ccc(C#N)cc1[C@]21N=C(N)N(Cc2ncccn2)C1=O", "note": "[Example 1]", "hERG % inhibition @ 10 μM (assay 3)": 8},
      {"molecule": "CC[C@@H]1C[C@]2(CC[C@H]1OC)Cc1ccc(C#N)cc1[C@]21N=C(N)N(CC2CCOCC2)C1=O", "note": "[Example 2]", "hERG % inhibition @ 10 μM (assay 3)": 22},
      {"molecule": "CC[C@@H]1C[C@]2(CC[C@H]1OC)Cc1ccc(C#N)cc1[C@]21N=C(N)N(CC(C)(C)F)C1=O", "note": "[Example 3]", "hERG % inhibition @ 10 μM (assay 3)": 9},
      {"molecule": "CC[C@@H]1C[C@]2(CC[C@H]1OC)Cc1ccc(C#N)cc1[C@]21N=C(N)N(CC2(F)CCOCC2)C1=O", "note": "[Example 4]", "hERG % inhibition @ 10 μM (assay 3)": 0},
      {"molecule": "CC[C@H]1C[C@@]2(CC[C@@H]1OC)Cc1ccc(C#N)cc1[C@]21N=C(N)N(C[C@H]2CCCO2)C1=O", "note": "[Example 5]", "hERG % inhibition @ 10 μM (assay 3)": 7},
      {"molecule": "CO[C@H]1CC[C@@]2(Cc3ccc(C#N)cc3[C@]23N=C(N)N(Cc2ncccn2)C3=O)C[C@@H]1C", "note": "[Example 6]", "hERG % inhibition @ 10 μM (assay 3)": 35},
      {"molecule": "COCCN1C(=O)[C@]2(N=C1N)c1cc(C#N)ccc1C[C@@]21CC[C@H](OC)[C@@H](C)C1", "note": "[Example 7]", "hERG % inhibition @ 10 μM (assay 3)": 8},
      {"molecule": "CO[C@H]1CC[C@@]2(Cc3ccc(C#N)cc3[C@]23N=C(N)N(CC2(C)COC2)C3=O)C[C@@H]1C", "note": "[Example 8]", "hERG % inhibition @ 10 μM (assay 3)": 16},
      {"molecule": "CO[C@H]1CC[C@@]2(Cc3ccc(C#N)cc3[C@]23N=C(N)N(Cc2ccncn2)C3=O)C[C@@H]1C", "note": "[Example 9]", "hERG % inhibition @ 10 μM (assay 3)": 16},
      {"molecule": "CO[C@H]1[C@H](C)C[C@@]2(Cc3ccc(C#N)cc3[C@]23N=C(N)N(Cc2ncc(F)cn2)C3=O)C[C@@H]1C", "note": "[Example 10]", "hERG % inhibition @ 10 μM (assay 3)": 38},
      {"molecule": "CO[C@H]1[C@H](C)C[C@@]2(Cc3ccc(C#N)cc3[C@]23N=C(N)N(CC2(C)COC2)C3=O)C[C@@H]1C", "note": "[Example 11]", "hERG % inhibition @ 10 μM (assay 3)": 6},
      {"molecule": "CO[C@H]1[C@H](C)C[C@@]2(Cc3ccc(C#N)cc3[C@]23N=C(N)N(C2COC2)C3=O)C[C@@H]1C", "note": "[Example 12]", "hERG % inhibition @ 10 μM (assay 3)": 11},
      {"molecule": "CO[C@H]1[C@H](C)C[C@@]2(Cc3ccc(C#N)cc3[C@]23N=C(N)N(CC2COC2)C3=O)C[C@@H]1C", "note": "[Example 13]", "hERG % inhibition @ 10 μM (assay 3)": 18},
      {"molecule": "CO[C@H]1[C@H](C)C[C@@]2(Cc3ccc(C#N)cc3[C@]23N=C(N)N(C[C@H]2CCCO2)C3=O)C[C@@H]1C", "note": "[Example 14]", "hERG % inhibition @ 10 μM (assay 3)": 20},
      {"molecule": "CO[C@H]1[C@H](C)C[C@@]2(Cc3ccc(C#N)cc3[C@]23N=C(N)N(C[C@@H]2CCCO2)C3=O)C[C@@H]1C", "note": "[Example 15]", "hERG % inhibition @ 10 μM (assay 3)": 11},
      {"molecule": "CO[C@H]1[C@H](C)C[C@@]2(Cc3ccc(C#N)cc3[C@]23N=C(N)N(CC2CCOCC2)C3=O)C[C@@H]1C", "note": "[Example 16]", "hERG % inhibition @ 10 μM (assay 3)": 6},
      {"molecule": "CO[C@H]1[C@H](C)C[C@@]2(Cc3ccc(C#N)cc3[C@]23N=C(N)N(CC(C)(C)F)C3=O)C[C@@H]1C", "note": "[Example 17]", "hERG % inhibition @ 10 μM (assay 3)": 12},
      {"molecule": "CO[C@H]1[C@H](C)C[C@@]2(Cc3ccc(C#N)cc3[C@]23N=C(N)N(CCC2COC2)C3=O)C[C@@H]1C", "note": "[Example 19]", "hERG % inhibition @ 10 μM (assay 3)": 8},
      {"molecule": "CO[C@H]1[C@H](C)C[C@@]2(Cc3ccc(C#N)cc3[C@]23N=C(N)N(CC2(C)OCCO2)C3=O)C[C@@H]1C", "note": "[Example 20]", "hERG % inhibition @ 10 μM (assay 3)": 8},
      {"molecule": "CO[C@H]1[C@H](C)C[C@@]2(Cc3ccc(C#N)cc3[C@]23N=C(N)N(C[C@@H]2COCCO2)C3=O)C[C@@H]1C", "note": "[Example 21]", "hERG % inhibition @ 10 μM (assay 3)": 24},
      {"molecule": "CO[C@H]1[C@H](C)C[C@@]2(Cc3ccc(C#N)cc3[C@]23N=C(N)N(C[C@H]2COCCO2)C3=O)C[C@@H]1C", "note": "[Example 22]", "hERG % inhibition @ 10 μM (assay 3)": 9},
      {"molecule": "CO[C@H]1[C@H](C)C[C@@]2(Cc3ccc(C#N)cc3[C@]23N=C(N)N(CC2(F)CCOCC2)C3=O)C[C@@H]1C", "note": "[Example 23]", "hERG % inhibition @ 10 μM (assay 3)": 16},
      {"molecule": "CO[C@H]1[C@H](C)C[C@@]2(Cc3ccc(C#N)cc3[C@]23N=C(N)N(Cc2ccncn2)C3=O)C[C@@H]1C", "note": "[Example 24]", "hERG % inhibition @ 10 μM (assay 3)": 23},
      {"molecule": "CO[C@H]1[C@H](C)C[C@@]2(Cc3ccc(F)cc3[C@]23N=C(N)N(C[C@@H]2CCOC2)C3=O)C[C@@H]1C", "note": "[Example 25]", "hERG % inhibition @ 10 μM (assay 3)": 10},
      {"molecule": "CC[C@@H]1C[C@@]2(Cc3ccc(C#N)cc3[C@]23N=C(N)N(CC(C)(C)F)C3=O)C[C@H](C)[C@H]1OC", "note": "[Example 26]", "hERG % inhibition @ 10 μM (assay 3)": 8},
      {"molecule": "CO[C@H]1CC[C@@]2(Cc3ccc(C#N)cc3[C@]23N=C(N)N(CC2COCCO2)C3=O)C[C@@H]1C", "note": "(stereo partly drawn) [Example 27]", "hERG % inhibition @ 10 μM (assay 3)": 19},
      {"molecule": "CC[C@@H]1C[C@]2(CC[C@H]1OC)Cc1ccc(C#N)cc1[C@]21N=C(N)N(C[C@H]2COCCO2)C1=O", "note": "[Example 28]", "hERG % inhibition @ 10 μM (assay 3)": 9},
      {"molecule": "CO[C@H]1[C@H](C)C[C@@]2(Cc3ccc(F)cc3[C@]23N=C(N)N(CC2(C)OCCO2)C3=O)C[C@@H]1C", "note": "[Example 29]", "hERG % inhibition @ 10 μM (assay 3)": 7}
    ]}
  ]
}
